Measurements: US8557737B2, “Methods of altering poppy characteristics” (priority 2005, dated 2013)

Assays:
Assay type in all cases: in vivo, Papaver somniferum
poppy crops [1] = assay: Example 1: field trial, metsulfuron-methyl 36 or 120 mg/ha at 12-14 leaf and ground cover, morphine crop
Method: (§1) All trials were conducted on poppy crops. Seed was treated with Thiram (5.6 g of Thiram 800/kg seed) and Apron (4 g/kg) and sown at a rate of approximately 750 g/ha. Fertilisers were applied at sowing. Most commonly, either 50:50 lime:superphosphate/triple superphosphate at 125 kg/ha, or lime:superphosphate at 250 kg/ha, were mixed with seed and drilled at a depth of 15 mm. In the same operation, NPK (nitrogen:phosphorus:potassium), at various rates, was banded 75 mm below the seed, unless otherwise stated. All crops were subjected to herbicide sprays for weed control, fungicide sprays for disease control, insecticide sprays if appropriate and were irrigated as required.
(§2) All spray applications were made with a precision sprayer, using Silvan Lurmark flat-fan, low-drift nozzles (LD110-0015). Spray equipment was calibrated to deliver 153 L water/ha.
(§3) At harvest, a 2 m×4 m quadrat was placed in each plot (3 m×6 m, unless otherwise stated) and capsules hand-picked from this area. Capsules were broken up, seed and capsule material separated and weighed. Capsule moisture readings were taken with a moisture meter. Alkaloid yield data were calculated on Pesticide Research Manager (version 5 for Windows) using the formulae below. Briefly, capsule weight was adjusted for moisture to a dry weight, 5% of seed weight was added to this (this amount of capsule material regularly occurs in seed samples after processing) to give a capsule weight per plot. Seed weight was adjusted to 95% of crude weight. Straw weights were determined by multiplying dry capsule weight by 1.3 (estimated amount of stem material in a commercial harvest) and adjusted to 11% moisture. When Lontrel was applied to crops exact capsule and seed weight data were entered. Analyses of variance and a Multiple Range Test were performed on data using Pesticide Research Manager. Significant differences (P=0.05) between treatments are denoted by different lower case letters adjacent to treatment means in the tables of results.
Metsulfuron-methyl (Compound 1) was applied at a rate of 36 or 120 mg/ha at 12-14 leaf and ground cover growth stages, in a morphine crop.

poppy crops [2] = assay: Example 3: field trial, metsulfuron-methyl alone or tank-mixed with Sunny at early-mid run-up, morphine crop; conditions: COMPOUND 1 120 MG/HA + PULSE .2 % V/V at E-MRU
Method: as §1, §2, §3
Trial to evaluate metsulfuron-methyl (Compound 1) (120 mg/ha) applied alone, or tank-mixed with Sunny (1 L/ha=50 g/ha), in a morphine crop. Treatments were applied to crop at early-mid run-up, plant heights were measured at green capsule stage.

poppy crops [3] = assay: Example 4: field trial, metsulfuron-methyl alone or tank-mixed with Sunny at early run-up, morphine crop; conditions: COMPOUND 1 120 MG/HA + PULSE .2 % v/v at ERU
Method: as §1, §2, §3
Trial to evaluate metsulfuron-methyl (Compound 1) (120 mg/ha) alone, or tank-mixed with Sunny (1 L/ha), in a morphine crop. Treatments were applied to crop at early run-up, plant heights were measured at early green capsule stage.

poppy crops [4] = assay: Example 13: field trial, metsulfuron-methyl, Lontrel and metsulfuron-methyl+Lontrel, morphine crop; conditions: Trt 3: COMPOUND 1 120 MG/HA + PULSE .2% V/V at RC, ERU and LRU
Method: as §1, §2, §3
Trial to evaluate applications of metsulfuron-methyl (Compound 1), Lontrel and metsulfuron-methyl+Lontrel, in a morphine crop. Treatment sprays were applied to crop at row cover, early run-up and late run-up. Plant heights were measured at green capsule stage. Lodging was assessed at harvest.

poppy crops [5] = assay: Example 16: field trial, metsulfuron-methyl, mesosulfuron-methyl and triasulfuron at row cover and ground cover/early run-up, morphine crop; conditions: Trt 2: COMPOUND 1 120 MG/HA + PULSE .2% V/V at RC and GC/ERU
Method: as §1, §2
as §3, with “Manager.” for “Manager. Significant differences (P=0.05) between treatments are denoted by different lower case letters adjacent to treatment means in the tables of results.”
Trial to evaluate applications of metsulfuron-methyl (Compound 1), mesosulfuron-methyl (Compound 2) and triasulfuron (Compound 3), in a morphine crop. Treatment sprays were applied to crop at row cover and ground cover/early run-up, respectively. Plant heights were assessed 5 weeks after last application and lodging was assessed at capsule harvest.

poppy crops [6] = assay: Example 18: field trial, triasulfuron, mesosulfuron-methyl and metsulfuron-methyl at row cover, mid run-up and early hook, morphine crop; conditions: Trt 2: COMPOUND 1 120 MG/HA + PULSE .2% V/V at RC, MRU and LRU
Method: as §1, §2
as §3, with “Manager.” for “Manager. Significant differences (P=0.05) between treatments are denoted by different lower case letters adjacent to treatment means in the tables of results.”
Trial to evaluate applications of triasulfuron, mesosulfuron-methyl and metsulfuron-methyl, in a morphine crop. […] Plant heights were measured 5 weeks after last application and lodging at capsule harvest.

`COC(=O)c1ccccc1S(=O)(=O)NC(=O)Nc1nc(C)nc(OC)n1` [Compound 1, metsulfuron-methyl] was tested, and the “CAPSULE/SEED RATIO” value (poppy crops [1]; 36 MG/HA at 12-14LF) was 0.603, the “CROP WEIGHT” value (poppy crops [1]; 36 MG/HA at 12-14LF) was 3.78 t/ha and the MORPHINE (poppy crops [1]; 36 MG/HA at 12-14LF) was 24.25 kg/ha. For the same molecule, the SEED (poppy crops [1]; 36 MG/HA at 12-14LF) was 2020 kg/ha, the STRAW (poppy crops [1]; 36 MG/HA at 12-14LF) was 1757 kg/ha and the “STRAW MORPHINE” value (poppy crops [1]; 36 MG/HA at 12-14LF) was 1.38%. For the same molecule, the “CAPSULE/SEED RATIO” value (poppy crops [1]; 120 MG/HA at 12-14LF) was 0.673, the “CROP WEIGHT” value (poppy crops [1]; 120 MG/HA at 12-14LF) was 3.37 t/ha and the MORPHINE (poppy crops [1]; 120 MG/HA at 12-14LF) was 24.40 kg/ha. The SEED (poppy crops [1]; 120 MG/HA at 12-14LF) was 1710 kg/ha, the STRAW (poppy crops [1]; 120 MG/HA at 12-14LF) was 1660 kg/ha and the “STRAW MORPHINE” value (poppy crops [1]; 120 MG/HA at 12-14LF) was 1.47%. For the same molecule, the “CAPSULE/SEED RATIO” value (poppy crops [1]; 120 MG/HA at GC (ground cover)) was 1.253, the “CROP WEIGHT” value (poppy crops [1]; 120 MG/HA at GC (ground cover)) was 3.10 t/ha and the MORPHINE (poppy crops [1]; 120 MG/HA at GC (ground cover)) was 26.19 kg/ha. For the same molecule, the SEED (poppy crops [1]; 120 MG/HA at GC (ground cover)) was 1105 kg/ha, the STRAW (poppy crops [1]; 120 MG/HA at GC (ground cover)) was 1999 kg/ha and the “STRAW MORPHINE” value (poppy crops [1]; 120 MG/HA at GC (ground cover)) was 1.31%. For the same molecule, the “CAPSULE/SEED RATIO” value (poppy crops [2]) was 0.984 ab, the “CROP WEIGHT” value (poppy crops [2]) was 1.52 ab t/ha and the MORPHINE (poppy crops [2]) was 20.88 a kg/ha. For the same molecule, the SEED (poppy crops [2]) was 640 c kg/ha, the STRAW (poppy crops [2]) was 884 ab kg/ha and the “STRAW MORPHINE” value (poppy crops [2]) was 2.36 a %. The “PLANT HEIGHT” value (poppy crops [2]; measured at green capsule stage) was 101.0 a cm, the “CAPSULE/SEED RATIO” value (poppy crops [3]) was 0.978 a and the “CROP WEIGHT” value (poppy crops [3]) was 2.30 b t/ha. The MORPHINE (poppy crops [3]) was 31.32 a kg/ha, the SEED (poppy crops [3]) was 955 c kg/ha and the STRAW (poppy crops [3]) was 1349 a kg/ha. The “STRAW MORPHINE” value (poppy crops [3]) was 2.32 a %, the “PLANT HEIGHT” value (poppy crops [3]; measured at early green capsule stage) was 82.6 a cm and the “CAPS/SEED RATIO” value (poppy crops [4]) was 3.431 a. The “CROP WEIGHT” value (poppy crops [4]) was 3.11 b t/ha, the MORPHINE (poppy crops [4]) was 50.81 a kg/ha and the SEED (poppy crops [4]) was 582 c kg/ha. For the same molecule, the STRAW (poppy crops [4]) was 2530 a kg/ha, the “STRAW MORPHINE” value (poppy crops [4]) was 2.01 a % and the LODGING (poppy crops [4]; assessed at harvest) was 2.2 b %. For the same molecule, the HEIGHT (poppy crops [4]; height at green capsule stage) was 95.8 b cm, the “CAPS/SEED RATIO” value (poppy crops [5]) was 1.740 a and the “CROP WEIGHT” value (poppy crops [5]) was 2.46 c t/ha. For the same molecule, the MORPHINE (poppy crops [5]) was 37.76 bc kg/ha, the SEED (poppy crops [5]) was 698 d kg/ha and the STRAW (poppy crops [5]) was 1749 bc kg/ha. The “STRAW MORPHINE” value (poppy crops [5]) was 2.15 ab %, the “PLANT HEIGHT” value (poppy crops [5]; 5 weeks after last application) was 90.0 c cm and the “CAPS/SEED RATIO” value (poppy crops [6]) was 2.543 a. For the same molecule, the “CROP WEIGHT” value (poppy crops [6]) was 2.87 b t/ha, the MORPHINE (poppy crops [6]) was 46.52 b kg/ha and the SEED (poppy crops [6]) was 643 c kg/ha. For the same molecule, the STRAW (poppy crops [6]) was 2186 a kg/ha, the “STRAW MORPHINE” value (poppy crops [6]) was 2.13 c % and the “PLANT HEIGHT” value (poppy crops [6]; 5 weeks after last application) was 88.0 cm·days. It also gave an LODGING (poppy crops [6]; at capsule harvest) of 1.8 a %.
